Measured values from patent publication US20100099559A1, “Method for protecting soybeans from being infected by fungi” (BASF SE, priority 2007, published 2010).

Test system: Cercospora sojina
Assay: Activity against Cercospora sojina, microtiter plate test
Assay type: cell-based
Settings: single active, absorption at 405 nm on day 7 after inoculation, 18° C.
Method: The expected efficacies of active compound combinations were determined using Colby's formula (Colby, S. R. “Calculating synergistic and antagonistic responses of herbicide combinations”, Weeds, 15, pp. 20-22, 1967) and compared with the observed efficacies. E=x+y−x·y/100 Colby's formula • E expected efficacy, expressed in % of the untreated control, when using the mixture of the active compounds A and B at the concentrations a and b • x efficacy, expressed in % of the untreated control, when using the active compound A at the concentration a • y efficacy, expressed in % of the untreated control, when using the active compound B at the concentration b A solution containing 10 mg a.i. per 1 ml dimethyl sulfoxide is prepared. The stock solution is pipetted onto a microtiter plate (MTP) and diluted with water. In a second step a spore suspension of Cercospora sojina (containing a biomalt-based aqueous nutrient medium) was given to the stated active compound concentration. The plates were placed in a water vapor-saturated chamber at temperatures of 18° C. Using an absorption photometer, the MTPs were measured at 405 nm on day 7 after the inoculation. The measured parameters were compared to the growth of the active compound-free control variant and the fungus- and active compound-free blank value to determine the relative growth in % of the pathogens in the individual active compounds.

Row | Structure (SMILES) | Observed activity (% infection) (concentration 0.016 ppm) [%] | Observed activity (% infection) (concentration 0.063 ppm) [%]
1 | Cn1cc(C(=O)Nc2ccccc2[C@@H]2C[C@H]2C2CC2)c(C(F)F)n1 [Compound (Ia), N-(trans-2-bicycloprop-2-ylphenyl)-3-difluoromethyl-1-methyl-1H-pyrazole-4-carboxamide] | 0 | 31
2 | Fc1ccc([C@]2(Cn3cncn3)O[C@H]2c2ccccc2Cl)cc1 (racemic) [epoxiconazole, reference compound] | – | 0
